This note sets out measurements from patent publication US20210002301A1, “NOVEL ISOTHIAZOLO-AZEPINONE BICYCLES, PROCESSES FOR THEIR PREPARATION AND THEIR USE AS HERBICIDES AND/OR PLANT GROWTH REGULATORS” (Bayer Aktiengesellschaft, priority 2017, published 2021).

What all share (settings): Dosage 320
For assay [1], the system named is ALOMY. The experiment in a line: Post-emergence herbicidal test. Format: in vivo, Alopecurus myosuroides.
The subject of assay [2] is ECHCG. The assay can be described thus: Post-emergence herbicidal test. The format is in vivo, Echinochloa crus-galli.
Assay [3] relates to SETVI. The assay can be described thus: Post-emergence herbicidal test. Format: in vivo, Setaria viridis.
The subject of assay [4] is ABUTH. The experiment in a line: Post-emergence herbicidal test. Format: in vivo, Abutilon theophrasti.
The test system of assay [5] is AMARE. The experiment in a line: Post-emergence herbicidal test. The format is in vivo, Amaranthus retroflexus.
The test system of assay [6] is PHBPU. The assay can be described thus: Post-emergence herbicidal test. The format is in vivo, Pharbitis purpurea.
The test system of assay [7] is POLCO. The experiment in a line: Post-emergence herbicidal test. Format: in vivo, Polygonum convolvulus.
Assay [8] concerns STEME. The experiment in a line: Post-emergence herbicidal test. Format: in vivo, Stellaria media.
The subject of assay [9] is VIOTR. The experiment in a line: Post-emergence herbicidal test. Format: in vivo, Viola tricolor.
Assay [10] deals with VERPE. The experiment in a line: Post-emergence herbicidal test. Format: in vivo, Veronica persica.
Assay [11] has as its system ALOMY. The experiment in a line: Pre-emergence herbicidal test. The format is in vivo, Alopecurus myosuroides.
Assay [12] relates to ECHCG. The assay can be described thus: Pre-emergence herbicidal test. The format is in vivo, Echinochloa crus-galli.
Assay [13] deals with LOLRI. The assay can be described thus: Pre-emergence herbicidal test. The format is in vivo.
For assay [14], the system named is SETVI. The experiment in a line: Pre-emergence herbicidal test. The format is in vivo, Setaria viridis.
Assay [15] concerns ABUTH. The assay can be described thus: Pre-emergence herbicidal test. Format: in vivo, Abutilon theophrasti.
Assay [16] has as its system AMARE. The assay can be described thus: Pre-emergence herbicidal test. Format: in vivo, Amaranthus retroflexus.
Assay [17] has as its system MATIN. The assay can be described thus: Pre-emergence herbicidal test. Format: in vivo, Matricaria inodora.
The subject of assay [18] is PHBPU. The experiment in a line: Pre-emergence herbicidal test. The format is in vivo, Pharbitis purpurea.
The test system of assay [19] is POLCO. The experiment in a line: Pre-emergence herbicidal test. The format is in vivo, Polygonum convolvulus.
Assay [20] has as its system STEME. The experiment in a line: Pre-emergence herbicidal test. The format is in vivo, Stellaria media.
The subject of assay [21] is VIOTR. The assay can be described thus: Pre-emergence herbicidal test. Format: in vivo, Viola tricolor.
For assay [22], the system named is VERPE. The assay can be described thus: Pre-emergence herbicidal test. The format is in vivo, Veronica persica.
The subject of assay [23] is HORMU. The assay can be described thus: Pre-emergence herbicidal test. The format is in vivo.

Turning to `Nc1nsc2c1C=CCN(CC1CCCCC1)C2=O` [Example I-04, 3-amino-7-(cyclohexylmethyl)-6H-isothiazolo[5,4-c]azepin-8-one], the ALOMY in [1] and in assay [11] was 100 each time. The ECHCG in assay [2] and in assay [12] was 100 in each case. Also, the SETVI is on record as 90 in assay [3] and 100 in assay [14]. Besides, the ABUTH in assay [4] and in [15] was 100 each time. For the same compound, the AMARE in assay [5] and in assay [16] was 100 in each case. Moreover, the PHBPU in assay [6] and in assay [18] was 100 throughout. In addition, the POLCO in assay [7] and in [19] was 100 in each case. The STEME in [8] and in assay [20] was 100 in each case. The VIOTR in assay [9] and in assay [21] was 100 each time. Also, the VERPE in assay [10] worked out at 90; in [22], 100. In assay [13], this compound had an LOLRI of 100. In [17], this compound returned an MATIN of 100. The compound also returned an HORMU in assay [23] of 90.
For `O=C(Nc1nsc2c1C=CCN(C1CCCCC1)C2=O)C(F)F` [Example I-25], the ALOMY in assay [1] and in assay [11] was 100 throughout. The ECHCG in assay [2] and in assay [12] was 100 in each case. The SETVI in assay [3] and in assay [14] was 100 each time. The ABUTH in [4] and in assay [15] was 100 throughout. Further, the AMARE in assay [5] and in assay [16] was 100 each time. In addition, the PHBPU in [6] and in assay [18] was 100 each time. The POLCO in assay [7] and in [19] was 100 in each case. Further, the STEME in assay [8] and in [20] was 100 in each case. Moreover, the VIOTR in [9] and in [21] was 100 throughout. Also, the results for the VERPE in [10] and in [22] were 90 and 100, respectively.
As for `O=C1c2snc(NC(=O)C(F)(F)C(F)(F)F)c2C=CCN1CC1CCCCC1` [Example I-61], the ALOMY in assay [1] and in assay [11] was 90 throughout. The ECHCG in assay [2] turned out to be 90; in assay [12], 100. For the same compound, the SETVI is reported as 80 in [3] and 100 in [14]. Also, the ABUTH in assay [4] is on record as 80; in [15] it was 100. Further, the AMARE in [5] and in assay [16] was 100 in each case. Besides, the PHBPU in [6] is given as 90; in assay [18] it was 100. Also, the POLCO in [7] and in assay [19] was 100 each time. The STEME in [8] and in assay [20] was 100 in each case. Further, the VIOTR in [9] and in [21] was 100 each time. Moreover, the VERPE stood at 90 in assay [10] and 100 in [22]. Besides, the LOLRI in [13] is recorded as 100. In assay [17], this compound showed an MATIN of 100. This compound gave an HORMU in [23] of 100.
